According to patent US20090264433A1, “Compounds, Compositions and Methods Comprising Triazine Derivatives” (Institute for OneWorld Health, priority 2008, published 2009):
Counter-ions that a name gives are not always drawn.

Target: T1, CFTR channel in human colonic T84 cells (Homo sapiens, UniProt P13569)
T1 construct: results in the phosphorylation and opening of CFTR anion channels; host or cells: human colonic T84 cells
Test: T84 assay (FLIPR membrane potential dye, forskolin/IBMX-stimulated CFTR)
Type: cell-based
Details: average of at least 2 runs unless annotated n = 1
Method in brief: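 T84 cells (25,000/well, grown overnight) were washed in HBSS with 10 mM Hepes, then loaded with FLIPR Red membrane potential dye for 45 min with or without compound. CFTR was stimulated with 10 μM forskolin plus 100 μM IBMX after a 10 s baseline. Depolarization was tracked as a fluorescence increase, read every second for 150 s.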

T1 sequence (P13569 whole entry): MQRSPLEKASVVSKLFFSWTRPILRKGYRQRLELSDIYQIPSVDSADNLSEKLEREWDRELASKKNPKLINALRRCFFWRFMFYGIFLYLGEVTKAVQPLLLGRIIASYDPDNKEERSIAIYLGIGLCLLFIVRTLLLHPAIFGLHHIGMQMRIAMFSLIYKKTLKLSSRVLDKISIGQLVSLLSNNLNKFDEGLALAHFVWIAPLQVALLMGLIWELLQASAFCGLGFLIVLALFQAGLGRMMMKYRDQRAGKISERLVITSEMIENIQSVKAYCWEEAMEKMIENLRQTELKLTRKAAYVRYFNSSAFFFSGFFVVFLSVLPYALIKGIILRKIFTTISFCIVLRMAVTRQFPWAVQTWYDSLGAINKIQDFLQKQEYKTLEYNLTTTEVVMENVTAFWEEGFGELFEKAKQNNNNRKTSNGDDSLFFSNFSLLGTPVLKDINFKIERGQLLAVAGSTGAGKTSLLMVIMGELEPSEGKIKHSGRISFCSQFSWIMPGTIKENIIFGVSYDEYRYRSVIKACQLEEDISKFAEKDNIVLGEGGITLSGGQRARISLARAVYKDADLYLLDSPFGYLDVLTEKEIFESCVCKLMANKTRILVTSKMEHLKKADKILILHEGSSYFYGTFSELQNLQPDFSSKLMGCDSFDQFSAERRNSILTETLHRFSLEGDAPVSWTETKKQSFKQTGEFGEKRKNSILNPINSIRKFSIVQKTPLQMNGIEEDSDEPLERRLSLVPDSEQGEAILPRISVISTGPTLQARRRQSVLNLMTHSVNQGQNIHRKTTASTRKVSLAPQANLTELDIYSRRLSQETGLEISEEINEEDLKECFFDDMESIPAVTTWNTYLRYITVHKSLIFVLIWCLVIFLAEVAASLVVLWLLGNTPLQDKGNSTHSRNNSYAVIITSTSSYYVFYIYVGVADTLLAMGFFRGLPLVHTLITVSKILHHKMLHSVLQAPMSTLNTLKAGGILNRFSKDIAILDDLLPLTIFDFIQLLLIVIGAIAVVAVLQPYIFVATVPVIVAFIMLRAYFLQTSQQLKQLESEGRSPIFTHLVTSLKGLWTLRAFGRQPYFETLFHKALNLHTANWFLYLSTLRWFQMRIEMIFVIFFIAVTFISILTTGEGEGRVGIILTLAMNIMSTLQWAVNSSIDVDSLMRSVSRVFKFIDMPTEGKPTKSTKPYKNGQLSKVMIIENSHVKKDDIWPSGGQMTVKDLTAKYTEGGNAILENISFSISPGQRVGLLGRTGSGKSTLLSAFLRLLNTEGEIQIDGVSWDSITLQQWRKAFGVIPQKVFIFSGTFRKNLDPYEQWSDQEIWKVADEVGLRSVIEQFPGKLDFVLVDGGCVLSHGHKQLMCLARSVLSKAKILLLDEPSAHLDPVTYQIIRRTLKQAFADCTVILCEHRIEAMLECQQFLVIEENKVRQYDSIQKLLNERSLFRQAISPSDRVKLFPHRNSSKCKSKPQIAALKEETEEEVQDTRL

IC50	Structure (SMILES)
5.89 µM	CN(Cc1ccc(COc2ncc(-c3cc(Cl)c(O)c(Cl)c3)nn2)cc1)C(CN1CCOCC1)c1ccccc1 (centres unmarked) [Compound 196, 2,6-dichloro-4-(3-(4-((methyl(2-morpholino-1-phenylethyl)amino)methyl)benzyloxy)-1,2,4-triazin-6-yl)phenol]
2.17 µM	Oc1c(Cl)cc(-c2cnc(OCc3cccc(OC(F)(F)F)c3)nn2)cc1Cl [Compound 153, 2,6-dichloro-4-(3-(3-(trifluoromethoxy)benzyloxy)-1,2,4-triazin-6-yl)phenol]
0.26 µM	Oc1c(Br)cc(-c2cnc(OCCc3ccc(Cl)c(Cl)c3)nn2)cc1Br [Compound 99, 2,6-dibromo-4-(3-(3,4-dichlorophenethoxy)-1,2,4-triazin-6-yl)phenol]
12.1 µM	COc1ccc(CNc2ncc(-c3cc(Cl)c(O)c(Cl)c3)nn2)cc1 [Compound 132, 2,6-dichloro-4-(3-(4-methoxybenzylamino)-1,2,4-triazin-6-yl)phenol]

Second part, the compound before the results:

Structure (SMILES)	IC50
CN(Cc1ccc(COc2ncc(-c3cc(Cl)c(O)c(Cl)c3)nn2)cc1)Cc1ccc(CN2CCCC2)cc1 [Compound 211, 2,6-dichloro-4-(3-(4-((methyl(4-(pyrrolidin-1-ylmethyl)benzyl)amino)methyl)benzyloxy)-1,2,4-triazin-6-yl)phenol, diformate salt]	8.04 µM
Oc1c(Cl)cc(-c2cnc(OCc3ccc(CNCc4ccc(C(F)(F)F)nc4)cc3)nn2)cc1Cl [Compound 169, 2,6-dichloro-4-(3-(4-(((6-(trifluoromethyl)pyridin-3-yl)methylamino)methyl)benzyl-oxy)-1,2,4-triazin-6-yl)phenol]	7.77 µM
O=Cc1ccc(COc2ncc(-c3cc(Cl)c(O)c(Cl)c3)nn2)cc1 [Compound 142, 4-((6-(3,5-dichloro-4-hydroxyphenyl)-1,2,4-triazin-3-yloxy)methyl)benzaldehyde]	10.7 µM
Oc1c(Cl)cc(-c2cnc(OCc3cccc4ccccc34)nn2)cc1Cl [Compound 116, 2,6-dichloro-4-(3-(naphthalen-1-ylmethoxy)-1,2,4-triazin-6-yl)phenol]	1.89 µM
CN(Cc1ccc(COc2ncc(-c3cc(Cl)c(O)c(Cl)c3)nn2)cc1)Cc1ccc(CN2CCCCC2)cc1 [Compound 208, 2,6-dichloro-4-(3-(4-((methyl(4-(piperidin-1-ylmethyl)benzyl)amino)methyl)benzyloxy)-1,2,4-triazin-6-yl)phenol, formate salt]	8.24 µM
O=C(c1cccc(C(F)(F)F)c1)N1CCN(Cc2cc(Cl)ccc2OCc2ncc(-c3cc(Br)c(O)c(Br)c3)nn2)CC1 [Compound 126, (4-(5-chloro-2-((6-(3,5-dibromo-4-hydroxyphenyl)-1,2,4-triazin-3-yl)methoxy)benzyl)piperazin-1-yl)(3-(trifluoromethyl)phenyl)methanone]	5.44 µM
Cc1csc(CC(=O)N2CCN(Cc3ccc(COc4ncc(-c5cc(Cl)c(O)c(Cl)c5)nn4)cc3)CC2)n1 [Compound 225, 1-(4-(4-((6-(3,5-dichloro-4-hydroxyphenyl)-1,2,4-triazin-3-yloxy)methyl)benzyl)piperazin-1-yl)-2-(4-methylthiazol-2-yl)ethanone]	11.1 µM
